From ChEMBL document CHEMBL1201862, “PubChem BioAssay data set” (2004)
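Values below derive from 48-hour exposures of cells grown in 96-well plates, with endpoints linearly interpolated between the two concentrations bracketing the appropriate inhibition level. Abbreviation: GI50, concentration required for 50% inhibition of growth.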 Calls of active or inactive are those of the source. Rule as the data show it: active = GI50 up to about 1.1 µM and inactive = higher.

Assays:
Test in all cases: NCI anticancer screen, dose series, 48 h
[1] = tested on: A549
[2] = tested on: ACHN
[3] = tested on: CAKI-1
[4] = tested on: CCRF-CEM
[5] = tested on: COLO 205
[6] = tested on: DLD-1
[7] = tested on: DMS-114
[8] = tested on: EKVX
[9] = tested on: HCT-116
[10] = tested on: HCT-15
[11] = tested on: HL-60
[12] = tested on: HOP-62
[13] = tested on: HOP-92
[14] = tested on: HT-29
[15] = tested on: IGROV-1
[16] = tested on: K562
[17] = tested on: KM12
[18] = tested on: LOX IMVI
[19] = tested on: LXFL 529
[20] = tested on: M14
[21] = tested on: M19-MEL
[22] = tested on: MOLT-4
[23] = tested on: Malme-3M
[24] = tested on: NCI-H226
[25] = tested on: NCI-H23
[26] = tested on: NCI-H460
[27] = tested on: NCI-H522
[28] = tested on: OVCAR-3
[29] = tested on: OVCAR-4
[30] = tested on: OVCAR-5
[31] = tested on: OVCAR-8
[32] = tested on: RPMI-8226
[33] = tested on: SF-268
[34] = tested on: SF-295
[35] = tested on: SF-539
[36] = tested on: SK-MEL-2
[37] = tested on: SK-MEL-5
[38] = tested on: SK-OV-3
[39] = tested on: SN12C
[40] = tested on: SNB-19
[41] = tested on: SNB-75
[42] = tested on: SNB-78
[43] = tested on: SR
[44] = tested on: SW-620
[45] = tested on: U-251
[46] = tested on: UACC-62
[47] = tested on: XF498
[48] = tested on: A498
[49] = tested on: DMS-273
[50] = tested on: HCC 2998
[51] = tested on: HOP-18
[52] = tested on: KM-20L2
[53] = tested on: MCF7
[54] = tested on: NCI/ADR-RES
[55] = tested on: RXF 393
[56] = tested on: SK-MEL-28
[57] = tested on: UACC-257
[58] = tested on: UO-31
[59] = tested on: 786-0
[60] = tested on: TK-10

CCOC(=O)NC(=O)c1cn(CCNCCO)c(=O)[nH]c1=O
GI50 [1]: > 100 µM (inactive) | GI50 [2]: > 100 µM (inactive) | GI50 [3]: > 100 µM (inactive) | GI50 [4]: > 100 µM (inactive) | GI50 [5]: > 100 µM (inactive) | GI50 [6]: > 100 µM (inactive) | GI50 [7]: > 100 µM (inactive) | GI50 [8]: > 100 µM (inactive) | GI50 [9]: > 100 µM (inactive) | GI50 [10]: > 100 µM | GI50 [11]: > 100 µM (inactive) | GI50 [12]: > 100 µM (inactive) | GI50 [13]: > 100 µM (inactive) | GI50 [14]: > 100 µM (inactive) | GI50 [15]: > 100 µM (inactive) | GI50 [16]: > 100 µM (inactive) | GI50 [17]: > 100 µM (inactive) | GI50 [18]: > 100 µM (inactive) | GI50 [19]: > 100 µM (inactive) | GI50 [20]: > 100 µM (inactive) | GI50 [21]: > 100 µM (inactive) | GI50 [22]: > 100 µM (inactive) | GI50 [23]: > 100 µM (inactive) | GI50 [24]: > 100 µM (inactive) | GI50 [25]: > 100 µM (inactive) | GI50 [26]: > 100 µM (inactive) | GI50 [27]: > 100 µM (inactive) | GI50 [28]: > 100 µM (inactive) | GI50 [29]: > 100 µM (inactive) | GI50 [30]: > 100 µM (inactive) | GI50 [31]: > 100 µM (inactive) | GI50 [32]: > 100 µM (inactive) | GI50 [33]: > 100 µM (inactive) | GI50 [34]: > 100 µM (inactive) | GI50 [35]: > 100 µM (inactive) | GI50 [36]: > 100 µM (inactive) | GI50 [37]: > 100 µM (inactive) | GI50 [38]: > 100 µM (inactive) | GI50 [39]: > 100 µM (inactive) | GI50 [40]: 9.23 µM (inactive) | GI50 [41]: 3.36 µM (inactive) | GI50 [42]: > 100 µM (inactive) | GI50 [43]: > 100 µM (inactive) | GI50 [44]: > 100 µM (inactive) | GI50 [45]: > 100 µM (inactive) | GI50 [46]: > 100 µM (inactive) | GI50 [47]: > 100 µM (inactive)

Cc1ccc(N(O)C(C)(C)C)cc1
GI50 [48]: > 100 µM (inactive) | GI50 [1]: > 100 µM (inactive) | GI50 [3]: > 100 µM (inactive) | GI50 [4]: > 100 µM (inactive) | GI50 [5]: > 100 µM (inactive) | GI50 [6]: > 100 µM (inactive) | GI50 [7]: > 100 µM (inactive) | GI50 [49]: > 100 µM (inactive) | GI50 [8]: > 100 µM (inactive) | GI50 [50]: > 100 µM (inactive) | GI50 [9]: > 100 µM (inactive) | GI50 [10]: > 100 µM | GI50 [11]: > 78.3 µM (inactive) | GI50 [51]: > 100 µM (inactive) | GI50 [12]: > 100 µM (inactive) | GI50 [13]: > 100 µM (inactive) | GI50 [14]: > 100 µM (inactive) | GI50 [15]: > 100 µM (inactive) | GI50 [16]: > 100 µM (inactive) | GI50 [52]: > 100 µM (inactive) | GI50 [17]: > 100 µM (inactive) | GI50 [18]: > 100 µM (inactive) | GI50 [21]: > 100 µM (inactive) | GI50 [53]: > 100 µM (inactive) | GI50 [22]: > 100 µM (inactive) | GI50 [23]: > 100 µM (inactive) | GI50 [24]: > 100 µM (inactive) | GI50 [25]: > 100 µM (inactive) | GI50 [26]: > 100 µM (inactive) | GI50 [27]: > 100 µM (inactive) | GI50 [54]: > 100 µM (inactive) | GI50 [28]: > 100 µM (inactive) | GI50 [29]: > 100 µM (inactive) | GI50 [30]: > 100 µM (inactive) | GI50 [31]: > 100 µM (inactive) | GI50 [32]: > 100 µM (inactive) | GI50 [55]: > 100 µM (inactive) | GI50 [33]: > 100 µM (inactive) | GI50 [34]: > 100 µM (inactive) | GI50 [35]: > 100 µM (inactive) | GI50 [56]: > 100 µM (inactive) | GI50 [36]: > 100 µM (inactive) | GI50 [37]: > 100 µM (inactive) | GI50 [38]: > 100 µM (inactive) | GI50 [39]: > 100 µM (inactive) | GI50 [40]: > 100 µM (inactive) | GI50 [41]: > 100 µM (inactive) | GI50 [44]: > 100 µM (inactive) | GI50 [45]: > 100 µM (inactive) | GI50 [57]: > 100 µM (inactive) | GI50 [46]: > 100 µM (inactive) | GI50 [58]: > 100 µM (inactive) | GI50 [47]: > 100 µM (inactive)

Cc1ccc(S(=O)(=O)n2c(-c3ccccc3)c(-c3ccccc3)c3ccccc32)cc1
GI50 [59]: > 100 µM (inactive) | GI50 [1]: > 100 µM (inactive) | GI50 [2]: > 100 µM (inactive) | GI50 [4]: > 100 µM (inactive) | GI50 [5]: > 100 µM (inactive) | GI50 [6]: > 100 µM (inactive) | GI50 [7]: 20.5 µM (inactive) | GI50 [49]: > 100 µM (inactive) | GI50 [8]: > 100 µM (inactive) | GI50 [50]: > 100 µM (inactive) | GI50 [9]: > 100 µM (inactive) | GI50 [10]: > 100 µM | GI50 [11]: > 100 µM (inactive) | GI50 [51]: > 100 µM (inactive) | GI50 [12]: > 100 µM (inactive) | GI50 [13]: 3.08 µM (inactive) | GI50 [14]: > 100 µM (inactive) | GI50 [15]: > 100 µM (inactive) | GI50 [16]: 64.9 µM (inactive) | GI50 [52]: > 100 µM (inactive) | GI50 [17]: > 100 µM (inactive) | GI50 [18]: > 100 µM (inactive) | GI50 [19]: > 100 µM (inactive) | GI50 [20]: > 100 µM (inactive) | GI50 [21]: > 100 µM (inactive) | GI50 [22]: > 100 µM (inactive) | GI50 [23]: > 100 µM (inactive) | GI50 [24]: > 100 µM (inactive) | GI50 [25]: 17.7 µM (inactive) | GI50 [26]: > 100 µM (inactive) | GI50 [27]: > 100 µM (inactive) | GI50 [28]: > 100 µM (inactive) | GI50 [29]: > 100 µM (inactive) | GI50 [30]: > 100 µM (inactive) | GI50 [31]: > 100 µM (inactive) | GI50 [32]: 23.1 µM (inactive) | GI50 [55]: > 100 µM (inactive) | GI50 [33]: > 100 µM (inactive) | GI50 [34]: 97.5 µM (inactive) | GI50 [35]: > 100 µM (inactive) | GI50 [56]: > 100 µM (inactive) | GI50 [36]: > 100 µM (inactive) | GI50 [37]: 20.3 µM (inactive) | GI50 [38]: 5.32 µM (inactive) | GI50 [39]: > 100 µM (inactive) | GI50 [40]: > 100 µM (inactive) | GI50 [41]: > 100 µM (inactive) | GI50 [43]: 7.31 µM (inactive) | GI50 [44]: > 100 µM (inactive) | GI50 [60]: > 100 µM (inactive) | GI50 [45]: > 100 µM (inactive) | GI50 [57]: > 100 µM (inactive) | GI50 [46]: > 100 µM (inactive) | GI50 [58]: > 100 µM (inactive) | GI50 [47]: > 100 µM (inactive)
